Seven compounds from patent US8685972B2, “Pyrimidine derivatives for treatment of alzheimer's disease” (Merck Sharp & Dohme Corp., priority 2008, dated 2014) can be followed below.

In this test the target is T1, γ-secretase (Homo sapiens, UniProt P49768).
T1 construct: Human SH-SY5Y neuroblastoma cells overexpressing the direct β-secretase substrate SPA4CT; endogenous in cells; host or cells: human SH-SY5Y neuroblastoma cells (stably overexpressing the substrate SPA4CT, induced with sodium butyrate)
The test is described as follows: Cell-Based γ-Secretase Assay (inhibition of Aβ(1-42) production, Meso Scale detection). The note with it: Human SH-SY5Y neuroblastoma cells overexpressing SPA4CT; overnight incubation; Aβ(42) in media. The protocol: Cell-Based γ-Secretase Assay
Human SH-SY5Y neuroblastoma cells overexpressing the direct β-secretase substrate SPA4CT were induced with sodium butyrate (10 mM) for 4 hours prior to plating. Cells were plated at 35,000 cells/well/100 μl in 96-well plates in phenol red-free MEM/10% FBS, 50 mM HEPES, 1% Glutamine and incubated for 2 hrs at 37° C., 5% CO2.
Compounds for testing were diluted into Me2SO to give a ten point dose-response curve. Typically 10 μl of these diluted compounds in Me2SO were further diluted into 182 μl dilution buffer (phenol red-free MEM/10% FBS, 50 mM HEPES, 1% Glutamine) and 10 μl of each dilution was added to the cells in 96-well plates (yielding a final Me2SO concentration of 0.5%). Appropriate vehicle and inhibitor controls were used to determine the window of the assay.
After incubation overnight at 37° C., 5% CO2, 25 μl and 50 μl media were transferred into a standard Meso avidin-coated 96-well plate for detection of Aβ(40) and Aβ(42) peptides, respectively. 25 μl Meso Assay buffer (PBS, 2% BSA, 0.2% Tween-20) was added to the Aβ(40) wells followed by the addition of 25 μl of the respective antibody premixes to the wells:
Aβ(40) premix: 1 μg/ml ruthenylated G2-10 antibody, 4 μg/ml biotinylated 4G8 antibody diluted in Origen buffer
Aβ(42) premix: 1 μg/ml ruthenylated G2-11 antibody, 4 μg/ml biotinylated 4G8 antibody diluted in Origen buffer
(Biotinylated 4G8 antibody supplied by Signet Pathology Ltd; G2-10 and G2-11 antibodies supplied by Chemicon)
After overnight incubation of the assay plates on a shaker at 4° C., the Meso Scale Sector 6000 Imager was calibrated according to the manufacturer's instructions. After washing the plates 3 times with 150 μl of PBS per well, 150 μl Meso Scale Discovery read buffer was added to each well and the plates were read on the Sector 6000 Imager according to the manufacturer's instructions.
LD50 and IC50 values for inhibition of Aβ(40) and Aβ(42) were calculated by nonlinear regression fit analysis using the appropriate software (eg. Excel fit). The total signal and the background were defined by the corresponding Me2SO and inhibitor controls.

As usually defined, the IC50 is the midpoint of a concentration-inhibition curve. The compound `Cc1ccc(C(C)(C)C)cc1Nc1ccnc(N2CCC(Cc3ccncc3)CC2)n1` [Example 4] showed an IC50 of 500 to 1500 nM. For `COc1cnc(N2CCC(Cc3ccncc3)CC2)nc1Nc1cc(N(C)C)ccc1C` [Example 6] the value was 1500 to 3000 nM; for `Cc1cc(C)c(N(C)C)cc1Nc1ccnc(N2CCC(Cc3ccncc3)CC2)n1` [Example 10], 1500 to 3000 nM. For `CCOc1cc(C)c(Nc2nc(N3CCC(Cc4ccncc4)CC3)ncc2Cl)cc1C(C)C` [Example 11] the value was 500 to 1500 nM. With `Cc1ccc(OC(C)C)cc1Nc1ccnc(N2CCC(Cc3ccncc3)CC2)n1` [Example 12], the IC50 lay within 500 to 1500 nM. For `COC(=O)c1cc(Nc2cc(C(C)(C)C)ccc2C)nc(N2CCC(Cc3ccncc3)CC2)n1` [Example 18] the value was 500 to 1500 nM. `Cc1ccc(C(C)(C)C)cc1Nc1nc(N2CCC(Cc3ccncc3)CC2)ncc1F` [Example 22] yielded an IC50 of 1500 to 3000 nM.
